# Measured values taken from PMC8765437, “GSK3640254 Is a Novel HIV-1 Maturation Inhibitor with an Optimized Virology Profile” (Antimicrobial Agents and Chemotherapy, 2022).
# Read-outs that look alike come from different tables or passages of the source.
# Tested on: NLRepRlucP373S viruses containing Gag SDMs or gag/pr genes from clinical isolates
# Experiment: Multiple-cycle replication assay, NLRepRluc reporter viruses in MT-2 cells, luciferase endpoint
# Assay type: cell-based, HIV-1
# Excerpt: Multiple-cycle assays using recombinant viruses or clinical isolates were used to assess MI antiviral activity as described previously ([10]). pNLRepRlucP373S (the P373S change is in the Gag gene and converts an outlier polymorphism in the NL4-3 gene to the prevalent amino acid in the population) plasmids containing SDMs in Gag or gag/pr regions from clinical isolates were transfected into HEK 293T cells, and the supernatant containing recombinant virus was harvested after 4 to 5 days. Virus was used to infect MT-2 cells in the presence of a 3-fold serially diluted compound at a final dimethyl sulfoxide (DMSO) concentration of 1%. The inocula of the reporter viruses were determined based on the luciferase activity detected on day 4 postinfection. The MOI (ratio of infectious virions to target cells) of reporter-free laboratory strains and clinical isolates was 0.005, as derived from a tissue culture infectious dose study. Clinical isolates or reporter-free viruses were examined in the reporter CEM-NKR-CCR5-Luc cells or PBMCs at MOIs ranging from 0.005 to 0.01. Each infection started with a drug-free preincubation of the cell-virus mixtures, performed at 37°C and 5% CO2 for either 1 h at 2 times the final cell density (reporter viruses) or 1 h (reporter-free laboratory strains) or 3 h (clinical isolates) using cell pellets in 0.5 mL of medium. After preincubation, cell-virus mixtures were added to compound-containing 96-well plates for a final cell density of either 10,000 (MT-2 cells for reporter viruses), 20,000 (MT-2 and PM1 cells for reporter-free laboratory strains), 200,000 (PBMCs for clinical isolates), or 500,000 (CEM-NKR-CCR5-Luc for reporter-free laboratory strains) cells per well. The CEM-NKR-CCR5-Luc cell assay was performed in the presence of Polybrene (10 μg/mL). Virus growth was determined on days 4 to 5 postinfection for reporter variants or days 5 to 11 for the other viruses. The reporter viruses were detected by a luciferase assay according to manufacturer protocols (Brite-Glo luciferase kit [Promega] for CEM-NKR-CCR5-Luc cells and Dual-Luciferase Reporter 1000 assay system [Promega] for the other cells), and luminescence was detected on a Wallac Trilux. The growth of clinical isolates in PBMCs was quantitated by reverse transcriptase activity in a 96-well scintillation proximity assay (SPA). Twenty microliters of culture supernatants was mixed with 40 μL of reaction cocktail (62.5 mM Tris-HCl [pH 7.8], 100 mM KCl, 0.0625% NP-40, 2.5 mM dithiothreitol [DTT], 6.25 mM MgCl2, 1 mM EGTA, 6.25 μg/mL of poly rA, 2.5 μg/mL of streptavidin SPA beads prebound with biotinylated-dT12-18, and 1 μCi of [^3H]TTP). Mixtures were incubated at 37°C for ∼3 h and quenched with 100 μl of 0.25 M EDTA per well. Luminescence was detected on a Wallac Trilux programmed for tritium counting with SPA beads in opaque plates. The growth of the reporter-free laboratory M-tropic strains and clinical isolates was monitored by a p24 enzyme-linked immunosorbent assay (ELISA; PerkinElmer Life Sciences, Waltham, MA) performed on culture supernatants. […] A 1:1,000 dilution of cell supernatant in PBS was generally observed to fall in the dynamic range of the endpoint signal.
# Maximal percent inhibition values were calculated as MPI = 100 – (mean signals at the 2 highest concentrations of compound/mean signal of 2 no-drug control wells) × 100.
# [1] = Human immunodeficiency virus 1, MT2, V370A, 10% FBS
# [2] = Human immunodeficiency virus 1, MT2, Wild type, 10% FBS
smiles,measurement,setting,value
C=C(C)[C@@H]1CC[C@]2(NCCN3CCS(=O)(=O)CC3)CC[C@]3(C)[C@H](CC[C@@H]4[C@@]5(C)CC=C(C6=CC[C@@](CF)(C(=O)O)CC6)C(C)(C)[C@@H]5CC[C@]43C)[C@@H]12 [GSK’254],MPI,A366V-containing viruses,−86 to 400%
same,EC50,"Human immunodeficiency virus 1, MT2, 92BR018-genotyped NLRepRlucP373S virus",1 nM
same,EC50,"Human immunodeficiency virus 1, MT2, 93BR008-genotyped NLRepRlucP373S virus",2 nM
same,EC50,"Human immunodeficiency virus 1, MT2, R361K/V362I/L363M",3 nM
same,EC50,"Human immunodeficiency virus 1, MT2, Table S1, SDM R361K/V362I/L363M",3 nM
same,EC50,"Human immunodeficiency virus 1, MT2, Table S1, SDM S368R/V370A",1 nM
same,EC50,"Human immunodeficiency virus 1, MT2, Table S1, SDM V362I/V370A",3 nM
same,EC50,"Human immunodeficiency virus 1, MT2, Table S1, SDM V370A",2 nM
same,EC50,"Human immunodeficiency virus 1, MT2, Table S1, SDM V370A/ΔT371",3 nM
same,EC50,"Human immunodeficiency virus 1, MT2, Table S1, SDM ΔV370",3 nM
same,EC50,"Human immunodeficiency virus 1, MT2, Table S1, subtype B SDM Wild-type (V, QVT)",3 nM
same,EC50,"Human immunodeficiency virus 1, MT2, V362I/V370A",3 nM
same,EC50,[1],1.5 nM
same,EC90,[1],3 nM
same,EC50,[2],1.4 nM
same,EC90,[2],3.6 nM
same,EC50,"Human immunodeficiency virus 1, MT2, read-out: EC50 (range), Subtype B gag/pr viruses, n=24",0.5 to 7 nM
same,EC50,"Human immunodeficiency virus 1, MT2, read-out: EC50 (range), Subtype C gag/pr viruses, n=11",1 to 2 nM
same,EC50,"Human immunodeficiency virus 1, MT2, read-out: EC50 (range), V362I only viruses, n=9",1 to 7 nM
same,EC50,"Human immunodeficiency virus 1, MT2, read-out: EC50 (range), Wild-type subtype B, n=5",0.5 to 2 nM
same,EC50,"Human immunodeficiency virus 1, MT2, read-out: Mean ± SD EC50, A366V-containing viruses (A366V, V362I/A366V, V362I/A366V/V370M, A366V/V370M)",> 3000 nM
same,EC50,"Human immunodeficiency virus 1, MT2, read-out: Mean ± SD EC50, SDM A326T/V362I/V370A",26 ± 70 nM
same,EC50,"Human immunodeficiency virus 1, MT2, read-out: Mean ± SD EC50, SDM A364V",274 ± 505 nM
same,EC50,"Human immunodeficiency virus 1, MT2, read-out: Mean ± SD EC50, SDM R361K/V362I/L363M",3 ± 1 nM
same,EC50,"Human immunodeficiency virus 1, MT2, read-out: Mean ± SD EC50, SDM T332S/V362I/prR41G",7 ± 4 nM
same,EC50,"Human immunodeficiency virus 1, MT2, read-out: Mean ± SD EC50, SDM V362I/V370A",3 ± 1 nM
same,EC50,"Human immunodeficiency virus 1, MT2, read-out: Mean ± SD EC50, SDM V370A",2 ± 1 nM
same,EC50,"Human immunodeficiency virus 1, MT2, read-out: Mean ± SD EC50, SDM Wild type",3 ± 2 nM
same,EC50,"Human immunodeficiency virus 1, MT2, read-out: Mean ± SD EC50, SDM ΔV370",3 ± 1 nM
same,EC50,"Human immunodeficiency virus 1, MT2, read-out: Mean ± SD EC50, Subtype B gag/pr viruses, n=24",1.9 ± 1.5 nM
same,EC50,"Human immunodeficiency virus 1, MT2, read-out: Mean ± SD EC50, Subtype C gag/pr viruses, n=11",1.2 ± 0.4 nM
same,EC50,"Human immunodeficiency virus 1, MT2, read-out: Mean ± SD EC50, V362I only viruses, n=9",2.7 ± 2 nM
same,EC50,"Human immunodeficiency virus 1, MT2, read-out: Mean ± SD EC50, V362I/ΔV370 virus, n=1",3 nM
same,EC50,"Human immunodeficiency virus 1, MT2, read-out: Mean ± SD EC50, Wild-type subtype B (V362, Q369, V370, T371), n=5",1.1 ± 0.5 nM
same,EC50,"Human immunodeficiency virus 1, MT2, read-out: Median EC50, Subtype B gag/pr viruses, n=24",1 nM
same,EC50,"Human immunodeficiency virus 1, MT2, read-out: Median EC50, Subtype C gag/pr viruses, n=11",1 nM
same,EC50,"Human immunodeficiency virus 1, MT2, read-out: Median EC50, V362I only viruses, n=9",2 nM
same,EC50,"Human immunodeficiency virus 1, MT2, read-out: Median EC50, Wild-type subtype B, n=5",1 nM
same,EC90,"Human immunodeficiency virus 1, MT2, read-out: PBA EC90, Table S1, SDM A326T/V362I/V370A",117 nM
same,EC90,"Human immunodeficiency virus 1, MT2, read-out: PBA EC90, Table S1, SDM R361K/V362I/L363M",50 nM
same,EC90,"Human immunodeficiency virus 1, MT2, read-out: PBA EC90, Table S1, SDM S368R/V370A",9 nM
same,EC90,"Human immunodeficiency virus 1, MT2, read-out: PBA EC90, Table S1, SDM T332S/V362I/PrR41G",77 nM
same,EC90,"Human immunodeficiency virus 1, MT2, read-out: PBA EC90, Table S1, SDM V362I/V370A",18 nM
same,EC90,"Human immunodeficiency virus 1, MT2, read-out: PBA EC90, Table S1, SDM V370A",21 nM
same,EC90,"Human immunodeficiency virus 1, MT2, read-out: PBA EC90, Table S1, SDM V370A/ΔT371",40 nM
same,EC90,"Human immunodeficiency virus 1, MT2, read-out: PBA EC90, Table S1, SDM ΔV370",57 nM
same,EC90,"Human immunodeficiency virus 1, MT2, read-out: PBA EC90, Table S1, subtype B SDM Wild-type (V, QVT)",24 nM
same,EC90,"Human immunodeficiency virus 1, MT2, read-out: PBA EC90, subtype B gag/pr 4NRR (Wild-type)",25 nM
same,EC90,"Human immunodeficiency virus 1, MT2, read-out: PBA EC90, subtype B gag/pr 28-MDR (Wild-type)",37 nM
same,EC90,"Human immunodeficiency virus 1, MT2, read-out: PBA EC90, subtype B gag/pr 92BR014 (V370M)",11 nM
same,EC90,"Human immunodeficiency virus 1, MT2, read-out: PBA EC90, subtype B gag/pr 92BR018 (V, QAΔ)",26 nM
same,EC90,"Human immunodeficiency virus 1, MT2, read-out: PBA EC90, subtype B gag/pr 92TH014 (V362I)",12 nM
same,EC90,"Human immunodeficiency virus 1, MT2, read-out: PBA EC90, subtype B gag/pr 92TH026 (V362I)",32 nM
same,EC90,"Human immunodeficiency virus 1, MT2, read-out: PBA EC90, subtype B gag/pr 92US072 (V362I)",21 nM
same,EC90,"Human immunodeficiency virus 1, MT2, read-out: PBA EC90, subtype B gag/pr 92US729 (Wild-type)",13 nM
same,EC90,"Human immunodeficiency virus 1, MT2, read-out: PBA EC90, subtype B gag/pr 93BR008 (V362I)",30 nM
same,EC90,"Human immunodeficiency virus 1, MT2, read-out: PBA EC90, subtype B gag/pr 93BR017 (V, QAΔ)",20 nM
same,EC90,"Human immunodeficiency virus 1, MT2, read-out: PBA EC90, subtype B gag/pr 93BR022 (V, QAΔ)",28 nM
same,EC90,"Human immunodeficiency virus 1, MT2, read-out: PBA EC90, subtype B gag/pr 93BR024 (V362I)",180 nM
same,EC90,"Human immunodeficiency virus 1, MT2, read-out: PBA EC90, subtype B gag/pr 93TH0647 (V362I)",23 nM
same,EC90,"Human immunodeficiency virus 1, MT2, read-out: PBA EC90, subtype B gag/pr 93US141 (V362I)",37 nM
